Measurements as given in ChEMBL document CHEMBL1128869, “-Mercaptoacyl dipeptides that inhibit angiotensin converting enzyme and neutral endopeptidase 24.11” (Bioorg Med Chem Lett, 1995).

Tests used:
Neprilysin = target: T1, Neprilysin (Rattus norvegicus, UniProt P07861); experiment: Inhibition of neutral endopeptidase (NEP) 24.11
T1 sequence (P07861 whole entry): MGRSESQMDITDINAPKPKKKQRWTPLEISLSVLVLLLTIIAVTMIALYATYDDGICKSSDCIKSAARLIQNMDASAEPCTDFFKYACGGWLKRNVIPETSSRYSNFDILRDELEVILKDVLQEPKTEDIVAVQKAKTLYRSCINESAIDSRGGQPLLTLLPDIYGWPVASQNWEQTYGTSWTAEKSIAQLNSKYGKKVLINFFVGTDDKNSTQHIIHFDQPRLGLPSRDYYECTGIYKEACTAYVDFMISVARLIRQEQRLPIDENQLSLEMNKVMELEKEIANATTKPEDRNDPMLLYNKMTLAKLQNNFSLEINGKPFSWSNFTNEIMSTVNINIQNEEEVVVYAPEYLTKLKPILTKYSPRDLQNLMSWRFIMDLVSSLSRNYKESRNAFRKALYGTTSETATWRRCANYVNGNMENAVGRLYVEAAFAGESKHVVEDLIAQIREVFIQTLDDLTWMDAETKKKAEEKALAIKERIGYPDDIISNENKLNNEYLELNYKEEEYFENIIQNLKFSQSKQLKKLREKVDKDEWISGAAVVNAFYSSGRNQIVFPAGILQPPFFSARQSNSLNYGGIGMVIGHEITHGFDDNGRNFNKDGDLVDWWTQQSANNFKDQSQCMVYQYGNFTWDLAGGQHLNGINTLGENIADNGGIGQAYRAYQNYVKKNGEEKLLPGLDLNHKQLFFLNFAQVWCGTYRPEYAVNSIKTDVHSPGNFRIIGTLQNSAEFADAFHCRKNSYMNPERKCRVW

[1] = target: Angiotensin-converting enzyme (Homo sapiens, UniProt P12821); experiment: Inhibition of angiotensin converting enzyme (ACE); assay type: protein assay
Rattus norvegicus [2] = organism: Rattus norvegicus; experiment: Concentration that causes inhibition of angiotensin-I (AI) induced pressor response in normotensive rats after intra arterial injection; assay type: functional
Rattus norvegicus [3] = organism: Rattus norvegicus; experiment: Time taken for 50 % or more inhibition of angiotensin-I (AI) induced pressor response in normotensive rats; assay type: functional
Rattus norvegicus [4] = organism: Rattus norvegicus; experiment: Compound concentration that causes inhibition of angiotensin-I (AI) induced pressor response in normotensive rats after intra arterial injection; assay type: functional

| SMILES | IC50 (Neprilysin) [nM] | IC50 [1] [nM] | Inhibition (Rattus norvegicus [2]) [mg/kg] | Duration of action (Rattus norvegicus [3]) [min] | Inhibition (Rattus norvegicus [4]) [mg/kg] |
| --- | --- | --- | --- | --- | --- |
| O=C(O)[C@H](Cc1ccc(-c2ccccc2)cc1)NC(=O)[C@@H](S)Cc1ccccc1 | 654 | 80 |  |  |  |
| CC(C)[C@H](S)C(=O)N[C@@H](Cc1ccc(-c2ccccc2)cc1)C(=O)N1CCC[C@H]1C(=O)O | 500 | 319 |  |  |  |
| O=C(N[C@@H](Cc1ccc2ccccc2c1)C(=O)N1CCC[C@H]1C(=O)O)[C@H](S)Cc1ccccc1 | 583 | 304 |  |  |  |
| O=C(N[C@@H](Cc1cccc2ccccc12)C(=O)N1CCC[C@H]1C(=O)O)[C@H](S)Cc1ccccc1 | > 1000 | 27 |  |  |  |
| O=C(N[C@@H](Cc1ccc(-c2ccccc2)cc1)C(=O)N1CCC[C@H]1C(=O)O)[C@@H](S)Cc1ccccc1 | 117 | 57 | 10 | 50 |  |
| O=C(N[C@@H](Cc1ccc2ccccc2c1)C(=O)N1CCC[C@H]1C(=O)O)[C@@H](S)Cc1ccccc1 | 705 | 18 | 10 | 25 |  |
| O=C(N[C@@H](Cc1ccc(-c2ccccc2)cc1)C(=O)N1CCC[C@H]1C(=O)O)[C@@H](S)c1ccc2c(c1)OCO2 | 385 | 183 |  |  |  |
| O=C(N[C@@H](Cc1ccc(-c2ccccc2)cc1)C(=O)N1CCC[C@H]1C(=O)O)[C@H](S)c1ccc2c(c1)OCO2 | 222 | 378 |  |  |  |
| O=C(N[C@@H](Cc1cccc2ccccc12)C(=O)N1CCC[C@H]1C(=O)O)[C@@H](S)Cc1ccccc1 | > 1000 | 14 |  |  |  |

Molecules with a lower IC50 (Neprilysin), results first:

| IC50 (Neprilysin) [nM] | IC50 [1] [nM] | SMILES | Inhibition (Rattus norvegicus [2]) [mg/kg] | Duration of action (Rattus norvegicus [3]) [min] | Inhibition (Rattus norvegicus [4]) [mg/kg] |
| --- | --- | --- | --- | --- | --- |
| 59 | 229 | O=C(N[C@@H](Cc1ccc(-c2ccccc2)cc1)C(=O)N1CCC[C@H]1C(=O)O)[C@H](S)Cc1ccccc1 |  |  |  |
| 28 | 62 | CC(C)[C@H](S)C(=O)N[C@@H](Cc1ccc(-c2ccccc2)cc1)C(=O)N[C@@H](Cc1ccc(O)cc1)C(=O)O | 10 | 60 |  |
| 43 | 100 | CC(C)[C@H](S)C(=O)N[C@@H](Cc1ccc(-c2ccccc2)cc1)C(=O)N[C@@H](CO)C(=O)O |  |  |  |
| 100 | 688 | O=C(N[C@@H](Cc1ccc(-c2ccccc2)cc1)C(=O)O)[C@H](S)Cc1ccccc1 |  |  |  |
| 33 | 175 | CC(C)[C@H](S)C(=O)N[C@@H](Cc1ccc(-c2ccccc2)cc1)C(=O)N[C@H](C(=O)O)C(C)C |  | 70 | 10 |
